Patent US20240368668A1, “SUBSTRATES AND BIOMARKERS OF ADAMTS7” (The Broad Institute, Inc., priority 2021, published 2024)

Tested on: mouse ADAMTS7
Assay: TMT10 TAILS N-terminomics, HUVEC experiment (process replicates, trypsin/AspN digest)
Type: cell-based, human
Conditions: for logFC.mWT.over.mEQ: HUVEC TAILS HC, log fold change of N-terminal peptide, Ad-mADAMTS7 WT over EQ; for HUVEC logFC.mWT.over.mEQ: HUVEC experiment, log fold change, mouse ADAMTS7 WT over EQ
Description: ADAMTS7 Expression, Cell Culture and Preparation of the Secreted Proteins—Full-length mouse Adamts7 1-1857 (Uniprot Q68SA9, WT or E373Q catalytic mutant) with a carboxyl terminal 3xFLAG tag was used to generate custom adenoviruses as previously described. Adeno-CMV-Luciferase (Ad-Luc) from Vector Biolabs was used as a negative control. Human Coronary Artery Smooth Muscle Cells (HCA-SMC) were obtained from Lonza and expanded in Lonza SmGM-2 media in 15 cm tissue culture plates. Twenty-four hours before media collection, near confluent plates were transduced with 50 MOI adenovirus and switched to Lonza Basal SM media with volumes of 20 ml per 15 cm plate. Expression of the Flag tagged ADAMTS7 was confirmed from the media using western blot and detected using the anti-Flag M2-HRP antibody (Sigma, A8592). Collected media was processed by adding protease inhibitors (1 mM EDTA and 1 mM PMSF) and clarified by 500 g×5 min spin at 4 C to pellet cell debris. Cell media supernatants were then passed through a 0.22 um filter and kept chilled. Processed media was then concentrated 50-100× using 3 kDa Centricon Plus-70 filter unit, spun at 3,500 g×60 min at 4 C. Approximately 10% of the processed, concentrated media was set aside for total secretome proteolytic analysis. The remaining 90% of the processed, concentrated media was buffer exchanged into 50 mM HEPES pH 8.0, 150 mM NaCl (2×50 ml) using the 3 kDa Centricon Plus-70 filter unit and concentrated to >2 mg/ml to serve as input for the TAILS experiment. Secretome and TAILS input samples were stored at −80° C.
For the first experiment, referred to as SMC1, 120 ml of media from 6×15 cm dishes was pooled from each condition (Luc, WT, EQ) and processed to produce three separate inputs for the TAILS experiment. Luc, WT and EQ inputs from the SMC1 experiment were each divided into triplicate 400 ug samples to generate technical replicate TAILS data. For the second experiment, referred to as SMC2, media was processed separately in triplicate for each condition (Luc1, Luc2, Luc3, WT1, WT2, WT3, EQ1, EQ2, EQ3) using 60 ml of media from 3×15 cm dishes for each process replicate. Inputs from the SMC2 experiment used process replicates of 300 ug each to generate TAILS data. The third experiment used input from cultured Human umbilical vein endothelial cells (HUVEC) from Lifeline Cell Technology grown in VascuLife Media and transduced in Lifeline Basal EC (+bFGF2 10 ng/ml). The HUVEC experiment used the same strategy as the SMC2 experiment, with 40 ml of media from 2×15 cm dishes for each process replicate and used 200 ug each to generate TAILS data. Inputs for process replicate experiments were restricted to the lowest concentration from the 9 parallel samples for SMC2 or HUVEC.
TMT10 isotopic labeling and negative selection of non-labeled peptides-Sample preparation was performed based on the TAILS protocol from the Overall lab with some modifications. From a single experiment, nine parallel protein samples in 50 mM HEPES pH 8.0, 150 mM NaCl were separately denatured with guanidinium chloride (Sigma, G4505) to reach a final concentration of 2.5M guanidinium chloride and 250 mM HEPES and incubated at 65° C. for 15 min. Reduction was achieved through addition of tris(2-carboxylethyl) phosphine (TCEP) at a final concentration of […] and incubated at 65° C. for 45 min. Alkylation reaction was performed with addition of iodoacetamide (IAA, Sigma, A3221) to a final concentration of 10 mM IAA for 15 min at room temperature in the dark. Following denaturation, reduction and alkylation steps, ten percent of each of the nine parallel protein samples was removed and combined to serve as a pooled reference. Isobaric tags were added to free amine groups using the TMT10plex Isobaric Mass Tagging Kit (ThermoFisher, 90113) with TMT channels randomly assigned to the nine samples and TMT 131 assigned to the pooled reference. […]

Row | Substance | logFC.mWT.over.mEQ | HUVEC logFC.mWT.over.mEQ
1 | EFEMP1_124 (AVAGPEMQTGR; listed as Homo sapiens) | 3.31 | –
2 | EFEMP1_125 (VAGPEMQTGR; listed as Homo sapiens) | – | 2.45
3 | FBN1_29 (LEAGNVKETR; listed as Homo sapiens) | 3.91 | –
4 | LOXL2_37 (FQQPAPEYHQPQAPANVAKIQLR; listed as Homo sapiens) | 3.48 | –
5 | FN1_1656 (SSSPVTGYR; listed as Homo sapiens) | 1.63 | –
6 | HSPG2_275 (LLPGSVR; listed as Homo sapiens) | – | 0.77
7 | FN1_36 (MVQPQSPVAVSQSKPGCYDNGKHYQINQQWER; listed as Homo sapiens) | 3.45 | –
8 | HSPG2_2331 (ANLAYPAGSTQPIR; listed as Homo sapiens) | 1.73 | –
9 | LTBP1_393 (LTATNFR; listed as Homo sapiens) | 3.33 | –
10 | FN1_886 (NQESTPVVIQQETTGTPR; listed as Homo sapiens) | 2.04 | 3.68
11 | FLNA_1285 (LTQTGGPHVKAR; listed as Homo sapiens) | 3.81 | –
12 | FN1_1143 (LTPGVEYVYTIQVLR; listed as Homo sapiens) | 3.68 | –
13 | FN1_40 (QSPVAVSQSKPGCYDNGKHYQINQQWER; listed as Homo sapiens) | 2.96 | –
14 | IGFBP7_101 (AAGGPGVSGVCVCKSR; listed as Homo sapiens) | 1.89 | –
15 | LOX_124 (WFQAGYSTSR; listed as Homo sapiens) | 3.35 | –
16 | AEBP1_37 (FLEGFLSELEPEPR; listed as Homo sapiens) | 4.34 | –
